Structures can show the parent of a compound that is named as a salt.
molecular target: T1, recombinant human baculovirus-expressed GST-tagged FASN (Homo sapiens, UniProt P49327); assay: FASN enzyme activity assay, fluorescence-based detection of CoA with CPM; format: biochemical; settings: 5 nM FASN, 150 μM NADPH, 10 μM acetyl-CoA, 25 μM malonyl-CoA, 90 minutes incubation; read-out: IC50 data for Additional Compounds of Formulae I-V(a): Activity
T1 construct: GST
How it was run: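 Human GST-tagged FASN, baculovirus-expressed (5 nM), in 50 mM HEPES pH 7.5 with 150 μM NADPH, 10 μM acetyl-CoA, 25 μM malonyl-CoA, 0.5% DMSO; malonyl-CoA-started, 90 min. Released CoA detected with CPM (50 μM dilution), 30 min, fluorescence ex 390/em 530. IC50 from variable-slope sigmoidal fit of % inhibition versus log concentration.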

T1 sequence (P49327 whole entry): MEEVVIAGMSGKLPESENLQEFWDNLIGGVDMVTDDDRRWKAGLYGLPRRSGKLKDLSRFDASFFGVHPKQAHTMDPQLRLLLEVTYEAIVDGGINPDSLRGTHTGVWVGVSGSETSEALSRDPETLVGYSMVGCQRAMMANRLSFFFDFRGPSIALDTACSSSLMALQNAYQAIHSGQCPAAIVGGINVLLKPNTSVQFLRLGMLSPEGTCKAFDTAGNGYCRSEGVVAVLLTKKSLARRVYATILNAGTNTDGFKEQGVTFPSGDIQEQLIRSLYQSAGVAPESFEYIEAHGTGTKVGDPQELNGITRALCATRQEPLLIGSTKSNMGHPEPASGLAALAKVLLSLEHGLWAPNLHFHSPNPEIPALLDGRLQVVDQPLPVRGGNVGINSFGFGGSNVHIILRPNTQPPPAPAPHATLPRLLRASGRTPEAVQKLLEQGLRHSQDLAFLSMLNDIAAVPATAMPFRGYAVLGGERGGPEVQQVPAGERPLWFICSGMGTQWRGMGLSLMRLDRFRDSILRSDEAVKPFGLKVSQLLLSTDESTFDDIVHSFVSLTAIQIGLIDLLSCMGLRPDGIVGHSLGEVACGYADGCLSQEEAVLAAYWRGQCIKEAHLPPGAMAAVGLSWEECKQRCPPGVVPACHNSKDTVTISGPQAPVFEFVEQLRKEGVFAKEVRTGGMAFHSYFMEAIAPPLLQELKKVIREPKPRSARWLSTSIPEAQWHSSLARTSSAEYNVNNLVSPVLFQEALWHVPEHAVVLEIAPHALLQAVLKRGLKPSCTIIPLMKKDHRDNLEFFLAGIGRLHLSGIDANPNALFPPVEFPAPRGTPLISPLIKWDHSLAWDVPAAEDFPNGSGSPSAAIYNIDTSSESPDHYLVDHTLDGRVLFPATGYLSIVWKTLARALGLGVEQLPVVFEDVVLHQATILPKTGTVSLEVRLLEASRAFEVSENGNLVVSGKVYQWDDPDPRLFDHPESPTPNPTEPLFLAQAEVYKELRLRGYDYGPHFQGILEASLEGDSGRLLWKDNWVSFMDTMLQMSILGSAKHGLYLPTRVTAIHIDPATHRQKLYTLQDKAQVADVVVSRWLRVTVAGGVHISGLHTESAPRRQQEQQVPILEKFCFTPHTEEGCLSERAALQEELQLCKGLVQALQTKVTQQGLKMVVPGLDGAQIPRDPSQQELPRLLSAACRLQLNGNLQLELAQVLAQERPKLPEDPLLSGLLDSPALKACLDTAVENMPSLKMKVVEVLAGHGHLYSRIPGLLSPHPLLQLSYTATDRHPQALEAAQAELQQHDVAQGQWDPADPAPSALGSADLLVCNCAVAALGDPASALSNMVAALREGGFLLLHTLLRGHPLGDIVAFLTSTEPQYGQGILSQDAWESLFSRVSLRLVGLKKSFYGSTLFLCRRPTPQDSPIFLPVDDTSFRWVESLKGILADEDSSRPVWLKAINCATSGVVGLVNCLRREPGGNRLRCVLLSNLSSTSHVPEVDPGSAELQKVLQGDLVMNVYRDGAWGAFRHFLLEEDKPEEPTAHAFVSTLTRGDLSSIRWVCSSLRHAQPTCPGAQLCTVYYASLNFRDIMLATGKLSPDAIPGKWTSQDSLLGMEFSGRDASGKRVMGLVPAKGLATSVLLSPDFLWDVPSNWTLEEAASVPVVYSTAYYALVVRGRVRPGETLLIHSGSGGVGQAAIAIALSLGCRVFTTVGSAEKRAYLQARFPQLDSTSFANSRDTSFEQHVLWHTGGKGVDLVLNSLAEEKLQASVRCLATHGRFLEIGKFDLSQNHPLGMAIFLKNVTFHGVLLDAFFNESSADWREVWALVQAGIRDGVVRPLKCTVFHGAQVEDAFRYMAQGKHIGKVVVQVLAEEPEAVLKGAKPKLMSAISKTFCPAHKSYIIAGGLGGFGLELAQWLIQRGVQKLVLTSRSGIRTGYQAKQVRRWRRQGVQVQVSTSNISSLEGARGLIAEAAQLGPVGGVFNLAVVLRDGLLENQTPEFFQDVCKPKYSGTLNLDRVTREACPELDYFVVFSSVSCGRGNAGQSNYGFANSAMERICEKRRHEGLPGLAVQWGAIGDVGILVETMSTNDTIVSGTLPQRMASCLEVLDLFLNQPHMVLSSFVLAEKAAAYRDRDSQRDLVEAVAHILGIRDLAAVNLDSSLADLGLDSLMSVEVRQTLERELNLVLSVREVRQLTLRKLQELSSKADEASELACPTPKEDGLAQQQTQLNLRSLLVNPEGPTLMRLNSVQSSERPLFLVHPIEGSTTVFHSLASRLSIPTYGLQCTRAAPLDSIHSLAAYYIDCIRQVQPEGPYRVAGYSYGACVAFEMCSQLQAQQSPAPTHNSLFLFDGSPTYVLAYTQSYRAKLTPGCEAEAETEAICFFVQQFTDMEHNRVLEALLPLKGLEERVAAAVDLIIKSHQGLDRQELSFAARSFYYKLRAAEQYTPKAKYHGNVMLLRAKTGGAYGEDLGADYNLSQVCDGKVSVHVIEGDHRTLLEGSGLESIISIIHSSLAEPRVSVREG

With `Cc1c(-c2ccc(OC3CCN(C(=O)NC4CCOCC4)CC3)cc2)ccc2cccnc12` [Example 549, 4-[4-(8-Methyl-7-quinolyl)phenoxy]-N-tetrahydropyran-4-yl-piperidine-1-carboxamide, HCl] as the compound, how does the IC50 read?
Its IC50 is 1000 to 10000 nM.

`CONC(=O)N1CCC(Oc2ccc(-c3ccc4ccnn4c3C)cc2)CC1` [Example 539, N-Methoxyoxy-4-[4-(7-methylpyrazolo[1,5-a]pyridin-6-yl)phenoxy]piperidine-1-carboxamide] was tested. Which IC50 did it give?
Its IC50 is 1 to 99 nM.

How did the IC50 turn out when `Cc1c(-c2ccc(OC3CCN(C(=O)OC4CCCOC4)CC3)cc2)ccc2cccnc12` (centres unmarked) [Example 557, Tetrahydropyran-3-yl 4-[4-(8-methyl-7-quinolyl)phenoxy]piperidine-1-carboxylate] was run?
The IC50 was 1000 to 10000 nM.

For `Cc1c(-c2ccc(OC3CCN(C(=O)OC(C)(C)C)CC3)cc2)ccc2nccn12` [Example 605, tert-Butyl 4-[4-(5-methylimidazo[1,2-a]pyridin-6-yl)phenoxy]piperidine-1-carboxylate], which IC50 is on record?
The IC50 was 1000 to 10000 nM.

same assay, conditions: 5 nM FASN, 150 μM NADPH, 10 μM acetyl-CoA, 25 μM malonyl-CoA, 90 minutes incubation; read-out: IC50 data for Compounds of Formulae I-V/V(a): Activity

`O=C(C1CC1)N1CCC(Oc2ccc(-c3cnc4ccccc4c3Cl)cc2)CC1` [Example 48, {4-[4-(4-Chloroquinolin-3-yl)-phenoxy]-piperidin-1-yl}-cyclopropyl-methanone] was tested. Which IC50 did it give?
Its IC50 is 1 to 99 nM.

For `Cc1c(-c2ccc(OC3CCN(C(=O)C4CCC4)CC3)cc2)cnc2ccccc12` [Example 62, Cyclobutyl-{4-[4-(4-methylquinolin-3-yl)-phenoxy]-piperidin-1-yl}-methanone], which IC50 is on record?
The IC50 was 1 to 99 nM.

How did the IC50 turn out when `O=C(C1CC1)N1CCC(Oc2ccc(-c3ccc4cccnc4c3OCCN3CCCC3)cc2)CC1` [Example 174, Cyclopropyl-(4-{4-[8-(2-pyrrolidin-1-yl-ethoxy)-quinolin-7-yl]-phenoxy}-piperidin-1-yl)-methanone, HCl] was run?
The IC50 was 1000 to 10000 nM.

For `COc1cc2ncc(-c3ccc(OC4CCN(C(=O)[C@H]5CCCO5)CC4)cc3)cc2cc1Cl` [Example 449, {4-[4-(6-Chloro-7-methoxyquinolin-3-yl)-phenoxy]-piperidin-1-yl}-(R)-tetrahydrofuran-2-yl-methanone], which IC50 is on record?
The IC50 was 1000 to 10000 nM.

Which IC50 does the source give for `Cc1cccc2ncc(-c3ccc(OC4CCN(C(=O)C5CC5)CC4)cc3)cc12` [Example 461, Cyclopropyl-{4-[4-(5-methyl-quinolin-3-yl)-phenoxy]-piperidin-1-yl}-methanone, HCl] here?
Its IC50 is 100 to 999 nM.

For `Cc1c(-c2ccc(OC3CCN(C(=O)C(C)F)CC3)cc2)ccc2cccnc12` (centres unmarked) [Example 359, 2-Fluoro-1-{4-[4-(8-methylquinolin-7-yl)-phenoxy]-piperidin-1-yl}-propan-1-one, HCl], which IC50 is on record?
The IC50 was 1 to 99 nM.

With `COc1cc(-c2ccc(OC3CCN(C(=O)[C@H]4CCCO4)CC3)cc2)cn2nccc12` [Example 424, {4-[4-(4-Methoxypyrazolo[1,5-a]pyridin-6-yl)-phenoxy]-piperidin-1-yl}-(R)-tetrahydrofuran-2-yl-methanone, HCl] as the compound, how does the IC50 read?
Its IC50 is 1 to 99 nM.

With `CCOC(=O)N1CCC(Oc2ccc(-c3ccc4cccnc4c3C)cc2)CC1` [Example 90, Ethyl 4-[4-(8-methyl-7-quinolyl)phenoxy]piperidine-1-carboxylate] as the compound, how does the IC50 read?
Its IC50 is 100 to 999 nM.

`O=C(C1CC1)N1CCC(Oc2ccc(-c3cnc4ccccc4c3)cc2)CC1` [Example 100, Cyclopropyl-[4-(4-quinolin-3-yl-phenoxy)-piperidin-1-yl]-methanone,HCl] was tested. Which IC50 did it give?
The IC50 was 1 to 99 nM.

How did the IC50 turn out when `CCC(=O)N1CCC(Oc2ccc(-c3cccc(Oc4ccccc4)c3)cc2)CC1` [Example 510, 1-[4-(3′-Phenoxybiphenyl-4-yloxy)-piperidin-1-yl]-propan-1-one] was run?
Its IC50 is 1000 to 10000 nM.

With `Cc1nccc2cc(-c3ccc(OC4CCN(C(=O)[C@H]5CCCO5)CC4)cc3)ccc12` [Example 431, {4-[4-(1-Methylisoquinolin-6-yl)-phenoxy]-piperidin-1-yl}-(R)-tetrahydro-furan-2-yl-methanone] as the compound, how does the IC50 read?
Its IC50 is 1 to 99 nM.

How did the IC50 turn out when `C[C@@H]1C[C@H](C)[C@H](C(=O)N2CCC(Oc3ccc(-c4cnc5ccccc5c4)cc3)CC2)O1` (racemic) [Example 155, ((2R,3S,5R)/(2S,3R,5S)-3,5-Dimethyl-tetrahydrofuran-2-yl)-[4-(4-quinolin-3-yl-phenoxy)-piperidin-1-yl]-methanone, HCl] was run?
Its IC50 is 1000 to 10000 nM.

Which IC50 does the source give for `Cc1ccc2cc(-c3ccc(OC4CCN(C(=O)N5CCCO5)CC4)cc3)cnc2c1` [Example 80, Isoxazolidin-2-yl-{4-[4-(7-methylquinolin-3-yl)-phenoxy]-piperidin-1-yl}-methanone] here?
Its IC50 is 1 to 99 nM.

`O=C([C@H]1CCCO1)N1CCC(Oc2ccc(-c3ccc4scnc4c3)cc2)CC1` [Example 267, [4-(4-Benzothiazol-5-yl-phenoxy)-piperidin-1-yl]-(R)-tetrahydrofuran-2-yl-methanone, TFA salt] was tested. Which IC50 did it give?
Its IC50 is 1 to 99 nM.

How did the IC50 turn out when `CCC(=O)N1CCC(Oc2ccc(-c3ccc4cnc(C)cc4c3)cc2)CC1` [Example 430, 1-{4-[4-(3-Methylisoquinolin-6-yl)-phenoxy]-piperidin-1-yl}-propan-1-one] was run?
Its IC50 is 1000 to 10000 nM.

With `O=C([C@H]1CCCO1)N1CCC(Oc2ccc(-c3cnc4cccc(F)c4c3)cc2)CC1` [Example 28, {4-[4-(5-Fluoroquinolin-3-yl)-phenoxy]-piperidin-1-yl}-(R)-tetrahydrofuran-2-yl-methanone] as the compound, how does the IC50 read?
Its IC50 is 1 to 99 nM.

How did the IC50 turn out when `O=C(C1CC1)N1CCC(Oc2ccc(-c3ccc(-c4ccccc4)nc3)cc2)CC1` [Example 380, Cyclopropyl-{4-[4-(6-phenyl-pyridin-3-yl)-phenoxy]-piperidin-1-yl}-methanone] was run?
The IC50 was 1000 to 10000 nM.

`O=C(C1CC1)N1CCC(Oc2ccc(-c3ccn4cnnc4c3)cc2)CC1` [Example 308, Cyclopropyl-[4-(4-[1,2,4]triazolo[4,3-a]pyridin-7-yl-phenoxy)-piperidin-1-yl]-methanone] was tested. Which IC50 did it give?
Its IC50 is 1000 to 10000 nM.

With `O=C1CC[C@H](C(=O)N2CCC(Oc3ccc(-c4cnc5ccccc5c4)cc3)CC2)O1` [Example 120, (R)-5-[4-(4-Quinolin-3-yl-phenoxy)-piperidine-1-carbonyl]-dihydrofuran-2-one, HCl] as the compound, how does the IC50 read?
The IC50 was 1 to 99 nM.

For `CC(C)(C)OC(=O)N1CCC(Oc2ccc(-c3cnc4ccccc4c3)cc2F)CC1` [Example 5, 4-(2-Fluoro-4-quinolin-3-yl-phenox)piperidine-1-carboxylic acid t-butyl ester], which IC50 is on record?
The IC50 was 1000 to 10000 nM.

`CCC(=O)N1CCC(Oc2ccc(-c3ccc4cccnc4c3C)cc2)CC1C` (mixture of isomers) [Example 363, 1-{2-Methyl-4-[4-(8-methylquinolin-7-yl)-phenoxy]-piperidin-1-yl}-propan-1-one, HCl] was tested. Which IC50 did it give?
Its IC50 is 100 to 999 nM.

`CCC(=O)N1CCC(Oc2ccc(-c3cnc4cc(C)ccc4c3)cc2)CC1` [Example 63, 1-{4-[4-(7-Methylquinolin-3-yl)-phenoxy]-piperidin-1-yl}-propan-1-one] was tested. Which IC50 did it give?
Its IC50 is 100 to 999 nM.

`CCC(=O)N1CCC(Oc2ccc(-c3ccc4cccnc4c3Cl)cc2F)CC1` [Example 224, 1-{4-[4-(8-Chloroquinolin-7-yl)-2-fluorophenoxy]-piperidin-1-yl}-propan-1-one] was tested. Which IC50 did it give?
Its IC50 is 1 to 99 nM.

How did the IC50 turn out when `O=C([C@H]1CCCO1)N1CCC(Oc2ccc(-c3ccc4ccccc4n3)cc2)CC1` [Example 42, [4-(4-Quinolin-2-yl-phenoxy)-piperidin-1-yl]-(R)-tetrahydrofuran-2-yl-methanone] was run?
Its IC50 is 1 to 99 nM.

With `O=C(C1CC1)N1CCC(Oc2ccc(-c3cnc4ccccc4n3)cc2)CC1` [Example 67, Cyclopropyl-[4-(4-quinoxalin-2-yl-phenoxy)-piperidin-1-yl]-methanone] as the compound, how does the IC50 read?
The IC50 was 100 to 999 nM.

For `CCC(=O)N1CCC(Oc2ccc(-c3cnc4cccc(F)c4c3)cc2)CC1` [Example 29, 1-{4-[4-(5-Fluoroquinolin-3-yl)-phenoxy]-piperidin-1-yl}-propan-1-one], which IC50 is on record?
The IC50 was 1 to 99 nM.

`Cc1c(-c2ccc(OC3CCN(C(=O)N4CCCCC4)CC3)cc2)ccc2cccnc12` [Example 98, [4-[4-(8-methyl-7-quinolyl)phenoxy]-1-piperidyl]-(1-piperidyl)methanone] was tested. Which IC50 did it give?
The IC50 was 1 to 99 nM.

With `O=C(C1CCCS1(=O)=O)N1CCC(Oc2ccc(-c3cnc4ccccc4c3)cc2)CC1` (centres unmarked) [Example 118, (1,1-Dioxidotetrahydrothiophen-2-yl)(4-(4-(quinolin-3-yl)phenoxy)piperidin-1-yl)methanone, HCl] as the compound, how does the IC50 read?
The IC50 was 1000 to 10000 nM.

For `CC(C)Oc1cc2cc(-c3ccc(OC4CCN(C(=O)[C@H]5CCCO5)CC4)cc3)ccc2cn1` [Example 451, {4-[4-(3-Isopropoxyisoquinolin-6-yl)-phenoxy]-piperidin-1-yl}-(R)-tetrahydrofuran-2-yl-methanone], which IC50 is on record?
The IC50 was 1 to 99 nM.

How did the IC50 turn out when `CN(C)c1c(-c2ccc(OC3CCN(C(=O)[C@H]4CCCO4)CC3)cc2)cnc2ccccc12` [Example 233, {4-[4-(4-Dimethylaminoquinolin-3-yl)-phenoxy]-piperidin-1-yl}-(R)-tetrahydrofuran-2-yl-methanone] was run?
The IC50 was 1000 to 10000 nM.

`CCC(=O)N1CCC(Oc2ccc(-c3ccc4c(c3)OCCO4)cc2)CC1` [Example 502, 1-{4-[4-(2,3-Dihydro-1,4-benzodioxin-6-yl)-phenoxy]-piperidin-1-yl}-propan-1-one] was tested. Which IC50 did it give?
The IC50 was 1000 to 10000 nM.

Which IC50 does the source give for `COc1ccc2ncc(-c3ccc(OC4CCN(C(=O)[C@H]5CCCO5)CC4)cc3)cc2c1` [Example 450, {4-[4-(6-Methoxyquinolin-3-yl)-phenoxy]-piperidin-1-yl}-(R)-tetrahydro-furan-2-yl-methanone, HCl] here?
The IC50 was 1 to 99 nM.

With `O=C(C1CC1)N1CCC(Oc2ccc(-c3ccc4cnccc4c3)nc2)CC1` [Example 149, Cyclopropyl-[4-(6-isoquinolin-6-yl-pyridin-3-yloxy)-piperidin-1-yl]-methanone, 2HCl] as the compound, how does the IC50 read?
Its IC50 is 1000 to 10000 nM.

With `Cc1c(-c2ccc(OC3CCN(C(=O)N(C)C)CC3)cc2)ccc2cccnc12` [Example 89, N,N-dimethyl-4-[4-(8-methyl-7-quinolyl)phenoxy]piperidine-1-carboxamide] as the compound, how does the IC50 read?
Its IC50 is 1 to 99 nM.
